According to ChEMBL document CHEMBL2040823, “A novel class of small-molecule caspase-3 inhibitors prepared by multicomponent reactions” (Eur J Med Chem, 2012):

How the values were obtained:
Caspase-3 = biological target: T1, Caspase-3 (Homo sapiens, UniProt P42574); test: Inhibition of human recombinant caspase-3 catalytic domain using Ac-DEVD-pNA as substrate preincubated for 30 mins before substrate addition measured after 3 mins
T1 sequence (P42574 whole entry): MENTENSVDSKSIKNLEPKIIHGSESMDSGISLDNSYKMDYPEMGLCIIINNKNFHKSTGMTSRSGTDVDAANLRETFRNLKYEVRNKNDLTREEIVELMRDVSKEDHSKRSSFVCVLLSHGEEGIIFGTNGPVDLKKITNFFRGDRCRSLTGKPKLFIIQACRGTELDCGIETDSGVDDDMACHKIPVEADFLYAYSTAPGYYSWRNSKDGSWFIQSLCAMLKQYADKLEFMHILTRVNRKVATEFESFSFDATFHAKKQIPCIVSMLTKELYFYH

[1] = Octanol-water partition coefficient, log P of the compound by Shake-flask method; format: physicochemical

Structure (SMILES)	IC50 (Caspase-3)	logP [1]
CCCN1C(=O)C(Nc2ccc(Br)cc2)=C(C(=O)OCC)C1c1ccccc1 (centres undefined)	> 45 µM	–
CCOC(=O)C1=C(Nc2ccc(Br)cc2)C(=O)N(c2ccc(Br)cc2)C1	–	1.75
CCCNC1=C(C(=O)OC)CN(c2ccccc2)C1=O	> 45 µM	–
CCOC(=O)C1=C(Nc2ccc(F)cc2)C(=O)N(c2ccc(F)cc2)C1	> 45 µM	–

Results, then the molecule that gave them:

IC50 (Caspase-3)	logP [1]	Structure (SMILES)
> 45 µM	–	CCOC(=O)C1=C(Nc2ccccc2)C(=O)N(c2ccccc2)C1
> 45 µM	–	CCOC(=O)C1=C(NC2CCCCC2)C(=O)N(C2CCCCC2)C1
–	2	CCOC(=O)C1=C(Nc2cccc3ccccc23)C(=O)N(C2CCCCC2)C1c1ccccc1 (centres undefined)
–	2.25	CCOC(=O)C1=C(Nc2ccc(Br)cc2)C(=O)N(C2CCCCC2)C1c1ccccc1 (centres undefined)
–	1.8	CCOC(=O)C1=C(NC2CCCCC2)C(=O)N(c2ccc(Br)cc2)C1
